# Patent publication US9963464B2, “Macrocyclic compounds” (Bayer Pharma Aktiengesellschaft, priority 2014, dated 2018)
# pIC50: −log10 of the molar value.
# What was measured:
# CDK2/CycE = target: T1, CDK2/CycE (Homo sapiens, UniProt P24941); experiment: CDK2/CycE high ATP kinase assay (TR-FRET, Method 2b); type: biochemical; details: 2 mM ATP
# T1 construct: GST; purchased ProQinase GmbH (Freiburg, Germany); host or cells: insect cells (Sf9)
# Experimental: 2b. CDK2/CycE High ATP Kinase Assay:
# CDK2/CycE-inhibitory activity of compounds of the present invention at 2 mM adenosine-tri-phosphate (ATP) was quantified employing the CDK2/CycE TR-FRET (TR-FRET=Time Resolved Fluorescence Resonance Energy Transfer) assay as described in the following paragraphs.
# Recombinant fusion proteins of GST and human CDK2 and of GST and human CycE, expressed in insect cells (Sf9) and purified by Glutathion-Sepharose affinity chromatography, were purchase from ProQinase GmbH (Freiburg, Germany). As substrate for the kinase reaction biotinylated peptide biotin-Ttds-YISPLKSPYKISEG (C-terminus in amid form) was used which can be purchased e.g. from the company JERINI peptide technologies (Berlin, Germany).
# (§1) For the assay 50 nl of a 100 fold concentrated solution of the test compound in DMSO was pipetted into a black low volume 384 well microtiter plate (Greiner Bio-One, Frickenhausen, Germany), 2 μl of a solution of CDK2/CycE in aqueous assay buffer [50 mM Tris/HCl pH 8.0, 10 mM MgCl2, 1.0 mM dithiothreitol, 0.1 mM sodium ortho-vanadate, 0.01% (v/v) Nonidet-P40 (Sigma)] were added and the mixture was incubated for 15 min at 22° C. to allow pre-binding of the test compounds to the enzyme before the start of the kinase reaction. […] The concentration of CDK2/CycE was adjusted depending of the activity of the enzyme lot and was chosen appropriate to have the assay in the linear range, typical concentrations were in the range of 15 ng/ml. The reaction was stopped by the addition of 5 μl of a solution of TR-FRET detection reagents (0.2 μM streptavidine-XL665 [Cisbio Bioassays, Codolet, France] and 1 nM anti-RB(pSer807/pSer811)-antibody from BD Pharmingen [#558389] and 1.2 nM LANCE EU-W1024 labeled anti-mouse IgG antibody [Perkin-Elmer, product no. AD0077, as an alternative a Terbium-cryptate-labeled anti-mouse IgG antibody from Cisbio Bioassays can be used]) in an aqueous EDTA-solution (100 mM EDTA, 0.2% (w/v) bovine serum albumin in 100 mM HEPES pH 7.5).
# (§2) The resulting mixture was incubated 1 h at 22° C. to allow the formation of complex between the phosphorylated biotinylated peptide and the detection reagents. Subsequently the amount of phosphorylated substrate was evaluated by measurement of the resonance energy transfer from the Eu-chelate to the streptavidine-XL. Therefore, the fluorescence emissions at 620 nm and 665 nm after excitation at 350 nm were measured in a TR-FRET reader, e.g. a Rubystar (BMG Labtechnologies, Offenburg, Germany) or a Viewlux (Perkin-Elmer). The ratio of the emissions at 665 nm and at […] was taken as the measure for the amount of phosphorylated substrate. The data were normalised (enzyme reaction without inhibitor=0% inhibition, all other assay components but no enzyme=100% inhibition).
# CDK9/CycT1 = target: T2, CDK9/CycT1 (Homo sapiens, UniProt P50750); experiment: CDK9/CycT1 kinase assay (TR-FRET, Method 1a); type: biochemical; details: for pIC50: Method 1a, 10 μM ATP; for Selectivity CDK9 over CDK2: IC50 (CDK2)/IC50 (CDK9): Methods 1a and 2a, minimal values where CDK9 IC50 is at the assay limit
# T2 construct: Recombinant full-length His-tagged human CDK9 and CycT1; His; purchased Invitrogen PV4131; host or cells: insect cells
# T2 sequence (P50750 whole entry): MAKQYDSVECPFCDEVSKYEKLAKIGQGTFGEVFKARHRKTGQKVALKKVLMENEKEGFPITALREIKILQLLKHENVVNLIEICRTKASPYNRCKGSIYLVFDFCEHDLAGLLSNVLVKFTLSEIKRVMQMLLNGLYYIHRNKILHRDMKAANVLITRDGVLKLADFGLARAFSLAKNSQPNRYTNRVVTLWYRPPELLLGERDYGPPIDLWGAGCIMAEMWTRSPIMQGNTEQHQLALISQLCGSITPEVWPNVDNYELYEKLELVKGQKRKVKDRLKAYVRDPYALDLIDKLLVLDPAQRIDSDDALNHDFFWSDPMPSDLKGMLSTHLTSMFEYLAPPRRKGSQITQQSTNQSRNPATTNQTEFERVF
# T2 sequence (O60563 whole entry partner): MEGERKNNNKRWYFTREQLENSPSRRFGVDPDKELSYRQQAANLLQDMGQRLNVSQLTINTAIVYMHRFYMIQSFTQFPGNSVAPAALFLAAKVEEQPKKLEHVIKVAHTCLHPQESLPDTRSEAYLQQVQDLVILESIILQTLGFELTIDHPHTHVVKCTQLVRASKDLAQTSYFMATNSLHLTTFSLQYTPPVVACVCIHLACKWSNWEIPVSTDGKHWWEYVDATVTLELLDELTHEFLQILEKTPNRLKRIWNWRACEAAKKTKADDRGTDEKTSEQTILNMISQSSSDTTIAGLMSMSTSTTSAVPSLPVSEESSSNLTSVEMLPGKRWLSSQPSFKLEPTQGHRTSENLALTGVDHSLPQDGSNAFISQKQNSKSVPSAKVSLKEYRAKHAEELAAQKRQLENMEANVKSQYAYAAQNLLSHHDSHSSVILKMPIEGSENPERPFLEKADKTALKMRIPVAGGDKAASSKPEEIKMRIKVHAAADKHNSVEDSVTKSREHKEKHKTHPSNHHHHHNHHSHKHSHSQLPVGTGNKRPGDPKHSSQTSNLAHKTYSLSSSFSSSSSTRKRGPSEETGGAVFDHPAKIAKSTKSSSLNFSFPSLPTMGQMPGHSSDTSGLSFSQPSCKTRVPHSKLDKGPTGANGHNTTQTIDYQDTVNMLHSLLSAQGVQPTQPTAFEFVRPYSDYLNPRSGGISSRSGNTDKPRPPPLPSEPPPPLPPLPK
# Text: 1a. CDK9/CycT1 Kinase Assay:
# CDK9/CycT1-inhibitory activity of compounds of the present invention was quantified employing the CDK9/CycT1 TR-FRET assay as described in the following paragraphs:
# as §1, with “Recombinant full-length His-tagged human CDK9 and CycT1, expressed in insect cells and purified by Ni-NTA affinity chromatography, were purchased from Invitrogen (Cat. No PV4131). As substrate for the kinase reaction biotinylated peptide biotin-Ttds-YISPLKSPYKISEG (C-terminus in amid form) was used which can be purchased e.g. from the company JERINI Peptide Technologies (Berlin, Germany). For” for “For”, “CDK9/CycT1” for “CDK2/CycE”, “1 μg/mL.” for “15 ng/ml.”, “AD0077])” for “AD0077, as an alternative a Terbium-cryptate-labeled anti-mouse IgG antibody from Cisbio Bioassays can be used])”
# as §2, with “nm was” for “nm were”, “a HTRF” for “a TR-FRET”
pIC50 (CDK2/CycE),pIC50 (CDK9/CycT1),Selectivity CDK9 over CDK2: IC50 (CDK2)/IC50 (CDK9) (CDK9/CycT1),Compound
7.49,8.55,1.7,"C[S+]([O-])Cc1cc2nc(c1)OCCCOc1cc(F)ccc1-c1cc(ncc1F)N2 (racemic) [Example 4, (rac)-15,19-Difluoro-8-[(methylsulfinyl)methyl]-3,4-dihydro-2H,11H-10,6-(azeno)-12,16-(metheno)-1,5,11,13-benzodioxadiazacyclooctadecine]"
7.70,8.52,0.65,"CS(=N)(=O)Cc1cc2nc(c1)OCCCOc1cc(F)ccc1-c1cc(ncc1F)N2 (racemic) [Example 5, (rac)-15,19-Difluoro-8-[(S-methylsulfonimidoyl)methyl]-3,4-dihydro-2H,11H-10,6-(azeno)-12,16-(metheno)-1,5,11,13-benzodioxadiazacyclooctadecine]"
5.46,8.14,56.5,"C[S+]([O-])Cc1cc2nc(c1)OCCOc1cc(F)ccc1-c1cc(ncc1F)N2 (racemic) [Example 10, (rac)-14,18-difluoro-7-[(methylsulfinyl)methyl]-2,3-dihydro-10H-9,5-(azeno)-11,15-(metheno)-1,4,10,12-benzodioxadiazacycloheptadecine]"
6.95,8.40,4.2,"C[S+]([O-])Cc1cc2nc(c1)OCCCCOc1cc(F)ccc1-c1cc(ncc1F)N2 (racemic) [Example 13, (rac)-16,20-difluoro-9-[(methylsulfinyl)methyl]-2,3,4,5-tetrahydro-12H-11,7-(azeno)-13,17-(metheno)-1,6,12,14-benzodioxadiazacyclononadecine]"
6.79,8.32,4.1,"CS(=N)(=O)Cc1cc2nc(c1)OCCCCOc1cc(F)ccc1-c1cc(ncc1F)N2 (racemic) [Example 14, (rac)-16,20-difluoro-9-[(S-methylsulfonimidoyl)methyl]-2,3,4,5-tetrahydro-12H-11,7-(azeno)-13,17-(metheno)-1,6,12,14-benzodioxadiazacyclononadecine]"
6.80,8.28,2.9,"CN=S(C)(=O)Cc1cc2nc(c1)OCCCOc1cc(F)ccc1-c1cc(ncc1F)N2 (racemic) [Example 19, (rac)-8-[(N,S-dimethylsulfonimidoyl)methyl]-15,19-difluoro-3,4-dihydro-2H,11H-10,6-(azeno)-12,16-(metheno)-1,5,11,13-benzodioxadiazacyclooctadecine]"

# Second part, the compound before the results:
Compound,pIC50 (CDK2/CycE),pIC50 (CDK9/CycT1),Selectivity CDK9 over CDK2: IC50 (CDK2)/IC50 (CDK9) (CDK9/CycT1)
"CS(=N)(=O)Cc1cc2cc(c1)OCCCCOc1cc(F)ccc1-c1nc(ncc1F)N2 (racemic) [Example 1, (rac)-16,20-Difluoro-9-[(S-methylsulfonimidoyl)methyl]-2,3,4,5-tetrahydro-12H-13,17-(azeno)-11,7-(metheno)-1,6,12,14-benzodioxadiazacyclononadecine]",6.67,8.54,7.4
"CS(=N)(=O)Cc1cc2nc(c1)OCCOc1cc(F)ccc1-c1cc(ncc1F)N2 (racemic) [Example 11, (rac)-14,18-difluoro-7-[(S-methylsulfonimidoyl)methyl]-2,3-dihydro-10H-9,5-(azeno)-11,15-(metheno)-1,4,10,12-benzodioxadiazacycloheptadecine]",5.67,8.60,72.6
"CS(=N)(=O)Cc1cc2cc(c1)OCCCOc1cc(F)ccc1-c1nc(ncc1F)N2 (racemic) [Example 15, (rac)-15,19-difluoro-8-[(S-methylsulfonimidoyl)methyl]-3,4-dihydro-2H,11H-12,16-(azeno)-10,6-(metheno)-1,5,11,13-benzodioxadiazacyclooctadecine]",6.63,8.42,6.8
"CS(=O)(Cc1cc2cc(c1)OCCCOc1cc(F)ccc1-c1nc(ncc1F)N2)=NC(=O)C(F)(F)F (racemic) [Example 16, (rac)-N-[{[15,19-difluoro-3,4-dihydro-2H,11H-12,16-(azeno)-10,6-(metheno)-1,5,11,13-benzodioxadiazacyclooctadecin-8-yl]methyl}(methyl)oxido-λ^6-sulfanylidene]-2,2,2-trifluoroacetamide]",6.17,8.41,14.8
"CCNC(=O)N=S(C)(=O)Cc1cc2nc(c1)OCCCOc1cc(F)ccc1-c1cc(ncc1F)N2 (racemic) [Example 17, (rac)-1-[{[15,19-difluoro-3,4-dihydro-2H,11H-10,6-(azeno)-12,16-(metheno)-1,5,11,13-benzodioxadiazacyclooctadecin-8-yl]methyl}(methyl)oxido-λ^6-sulfanylidene]-3-ethylurea]",7.44,8.36,1.3
"CC(=O)N=S(C)(=O)Cc1cc2nc(c1)OCCCOc1cc(F)ccc1-c1cc(ncc1F)N2 (racemic) [Example 18, (rac)-N-[{[15,19-difluoro-3,4-dihydro-2H,11H-10,6-(azeno)-12,16-(metheno)-1,5,11,13-benzodioxadiazacyclooctadecin-8-yl]methyl}(methyl)oxido-λ^6-sulfanylidene]acetamide]",7.20,8.31,1.7
"CCOC(=O)N=S(C)(=O)Cc1cc2nc(c1)OCCCOc1cc(F)ccc1-c1cc(ncc1F)N2 (racemic) [Example 20, (rac)-ethyl [{[15,19-difluoro-3,4-dihydro-2H,11H-10,6-(azeno)-12,16-(metheno)-1,5,11,13-benzodioxadiazacyclooctadecin-8-yl]methyl}(methyl)oxido-λ^6-sulfanylidene]carbamate]",7.35,8.28,2.2
